# Source: patent US20240033283A1, “FUNCTIONALIZED AND CROSSLINKED POLYMERS” (PMIDG, LLC, priority 2020, published 2024)
# Counter-ions that a name gives are not always drawn.
# Assay: Lidocaine release from gels (dialysis tubing)
# Type: physicochemical
# Conditions: PBS, 37° C.
# Experimental: HA and HA-DVS-MBA (83.3% substitution) gels were prepared in a similar manner as described in Example 18 using 0.75% BDDE and a pH of 13.1. About 2 g of each gel were added to a vial and 105 uL of a 6% (w/w) lidocaine HCl in PBS solution was added to each sample. After mixing, the samples were autoclaved for 5 minutes at 121° C. Approx. 1.5 g of each gel was transferred to dialysis tubing (Aldon Corporation, IS13027, 6.4 mm×10 mm, cut-off: 12-14 kDa). […] The loaded dialysis tubing was placed in separate 45 ml PBS solutions and incubated at 37° C. under oscillating conditions. […] The lidocaine content was measured using HPLC. The percent release was determined by released amount divided by the initial amount added. The release of the lidocaine from the HA and HA-MBA gels was similar.
smiles,measurement,setting,value
"CCN(CC)CC(=O)Nc1c(C)cccc1C [Lidocaine only, lidocaine HCl]",Cumulative Release (%),Time 0.5 hr,82%
same,Cumulative Release (%),Time 1 hr,87%
same,Cumulative Release (%),Time 1.5 hr,86%
same,Cumulative Release (%),Time 2 hr,84%
same,Cumulative Release (%),Time 3.5 hr,82%
